# Reference: patent US20260022142A1, “MACROCYCLIC IMMUNOMODULATORS” (Bristol-Myers Squibb Company, priority 2022, published 2026)
# Numbered stars: 1 amine (or outer) side, 2 acyl side, 3 side chain; on linkers, the order of the positions; unused ones are H or OH. Bridge positions count the residues as written; N and C are the ends. Square brackets hold non-standard residues; d marks the D form. Peptide text beside a SMILES is read from it. * marks the point of attachment. ξ: configuration not given here. Phe(3-CF3) = N[C@@H](Cc1cccc(C(F)(F)F)c1)C(=O)O; Ala(morpholin-4-yl) = N[C@@H](CN1CCOCC1)C(=O)O; Phe(4-COOH) = N[C@@H](Cc1ccc(C(=O)O)cc1)C(=O)O; Bip = N[C@@H](Cc1ccc(-c2ccccc2)cc1)C(=O)O; Abu(4,4,4-F3) = N[C@@H](CC(F)(F)F)C(=O)O; Phe(3-Me) = Cc1cccc(C[C@H](N)C(=O)O)c1; His(τ-Me) = Cn1cnc(C[C@H](N)C(=O)O)c1; NH(CH2)12COOH = O=C(O)CCCCCCCCCCCCN*; Val(3-OH) = CC(C)(O)[C@H](N)C(=O)O; 4Pal = N[C@@H](Cc1ccncc1)C(=O)O; Cha = N[C@@H](CC1CCCCC1)C(=O)O; Cit = NC(=O)NCCC[C@H](N)C(=O)O; Thr(3ξ) = CC(O)[C@H](N)C(=O)O; Ala(CN) = N#CC[C@H](N)C(=O)O; CH2COCH2 = O=C(C[*:1])C[*:2]; 12Ado = NCCCCCCCCCCCC(=O)O; hSer = N[C@@H](CCO)C(=O)O; Carboxymethyl = O=C(O)C*; Nle = CCCC[C@H](N)C(=O)O; Orn = NCCC[C@H](N)C(=O)O; Aun = NCCCCCCCCCCC(=O)O; Dab = NCC[C@H](N)C(=O)O; Dap = NC[C@H](N)C(=O)O; AEEA = NCCOCCOCC(=O)O
# Target: T1, PD-1/PD-L1 interaction (PE-labeled human PD-L1-Ig binding to Jurkat cell line over-expressing human PD-1) (Homo sapiens, UniProt Q15116)
# T1 construct: expressed in transfected cells; host or cells: Jurkat
# T1 sequence (Q15116 25-288): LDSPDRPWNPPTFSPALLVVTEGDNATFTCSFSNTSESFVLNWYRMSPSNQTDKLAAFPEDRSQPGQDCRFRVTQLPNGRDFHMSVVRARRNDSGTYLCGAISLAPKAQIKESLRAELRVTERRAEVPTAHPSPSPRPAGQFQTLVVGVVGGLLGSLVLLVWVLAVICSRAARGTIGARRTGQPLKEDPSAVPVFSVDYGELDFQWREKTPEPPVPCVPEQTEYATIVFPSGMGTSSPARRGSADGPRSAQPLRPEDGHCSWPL
# Test: Jurkat-PD-1 Cell Binding High-Content Screening Assay (CBA)
# Type: cell-based
# Settings: Jurkat cell line over-expressing human PD-1; PE-labeled PD-L1-Ig 20 nM final; read-out: Jurkat hPD1-PDL1 IC50
# In short: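 Binding of fluorescent PD-L1-Ig (20 nM final) to Jurkat-PD-1 cells was measured by automated imaging after 1 h, following a 2 h compound pre-treatment at 37° C.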
row,SMILES,IC50
1,"CC(C)C[C@H]1NC(=O)[C@H](Cc2cnc[nH]2)NC(=O)[C@H](Cc2ccc(C(=O)O)cc2)NC(=O)[C@H](Cc2ccc(-c3ccccc3)cc2)NC(=O)[C@H](Cc2ccc(C(=O)O)cc2)NC(=O)[C@H](Cc2cccc(C(F)(F)F)c2)NC(=O)[C@H](CC(=O)O)NC(=O)[C@H](Cc2ccc(OCC(=O)O)cc2)NC(=O)[C@H](CC(F)(F)F)NC(=O)CSC[C@@H](C(=O)N[C@@H](CCN)C(=O)NCCCCCCCCCCCCC(=O)O)NC(=O)[C@H](CO)NC(=O)[C@H](C(C)(C)O)NC(=O)[C@H](CC2CCCCC2)NC(=O)[C@H](CCN)NC1=O [Compound 3857] ({CH2CO}-[Abu(4,4,4-F3)]Y(Carboxymethyl)D[Phe(3-CF3)][Phe(4-COOH)][Bip][Phe(4-COOH)]H[dL][Dab][Cha][Val(3-OH)]SC[Dab]-{NH(CH2)12COOH}; thioether N-14)",166 nM
2,Cc1cccc(C[C@@H]2NC(=O)[C@H](CC(=O)O)NC(=O)[C@H](Cc3ccc(OCC(=O)O)cc3)NC(=O)[C@H](CCCNC(=N)N)NC(=O)CSC[C@@H](C(=O)N[C@@H](CCO)C(=O)NCCCCCCCCCCCC(=O)O)NC(=O)[C@H](C(C)O)NC(=O)[C@H](C(C)C)NC(=O)[C@H](CC3CCCCC3)NC(=O)[C@H](CCN)NC(=O)[C@@H](CC(C)C)NC(=O)[C@H](CCCN)NC(=O)[C@H](CCCNC(N)=O)NC(=O)[C@H](Cc3ccc(-c4ccccc4)cc3)NC(=O)[C@H](C(C)C)NC2=O)c1 (stereo partly drawn) [Compound 3565] ({CH2CO}-RY(Carboxymethyl)D[Phe(3-Me)]V[Bip][Cit][Orn][dL][Dab][Cha]V[Thr(3ξ)]C[hSer][12Ado]-OH; thioether N-14),39.4 nM
3,CC(C)C[C@H]1NC(=O)[C@H](CCCN)NC(=O)[C@H](Cc2ccc(O)cc2)NC(=O)[C@H](Cc2ccc(-c3ccccc3)cc2)NC(=O)[C@H](Cc2ccc(O)cc2)NC(=O)[C@H](Cc2c[nH]c3ccccc23)NC(=O)[C@H](CC(=O)O)NC(=O)[C@H](Cc2ccc(OCC(=O)O)cc2)NC(=O)[C@H](CN)NC(=O)CSC[C@@H](C(=O)N[C@@H](CCN)C(=O)NCCCCCCCCCCC(=O)O)NC(=O)[C@H](CN)NC(=O)[C@H](C(C)O)NC(=O)[C@H](CC2CCCCC2)NC(=O)[C@H](CCN)NC1=O (stereo partly drawn) [Compound 3656] ({CH2CO}-[Dap]Y(Carboxymethyl)DWY[Bip]Y[Orn][dL][Dab][Cha][Thr(3ξ)][Dap]C[Dab][Aun]-OH; thioether N-14),178 nM
4,Cc1cccc(C[C@@H]2NC(=O)[C@H](CC(=O)O)NC(=O)[C@H](Cc3ccc(OCC(=O)O)cc3)NC(=O)[C@H](Cc3cn(C)cn3)NC(=O)CSC[C@@H](C(=O)N[C@@H](CCN)C(=O)NCCCCCCCCCCC(=O)O)NC(=O)[C@H](CO)NC(=O)[C@H](C(C)C)NC(=O)[C@H](CC3CCCCC3)NC(=O)[C@H](CCN)NC(=O)[C@@H](CC(C)C)NC(=O)[C@H](CCCN)NC(=O)[C@H](Cc3ccc(OCC(=O)O)cc3)NC(=O)[C@H](Cc3ccc(-c4ccccc4)cc3)NC(=O)[C@H](C(C)(C)O)NC2=O)c1 [Compound 2150] ({CH2CO}-[His(τ-Me)]Y(Carboxymethyl)D[Phe(3-Me)][Val(3-OH)][Bip]Y(Carboxymethyl)[Orn][dL][Dab][Cha]VSC[Dab][Aun]-OH; thioether N-14),565 nM
5,CC(C)C[C@H]1NC(=O)[C@H](CCCN)NC(=O)[C@H](Cc2ccc(O)cc2)NC(=O)[C@H](Cc2ccc(-c3ccccc3)cc2)NC(=O)[C@H](C(C)C)NC(=O)[C@H](Cc2c[nH]c3ccccc23)NC(=O)[C@H](CC(=O)O)NC(=O)[C@H](Cc2ccc(OCC(=O)O)cc2)NC(=O)[C@H](CC(N)=O)NC(=O)CSC[C@@H](C(=O)N[C@@H](CCN)C(=O)NCCCCCCCCCCC(=O)O)NC(=O)[C@H](CC#N)NC(=O)[C@H](C(C)C)NC(=O)[C@H](CC2CCCCC2)NC(=O)[C@H](CCN)NC1=O [Compound 3425] ({CH2CO}-NY(Carboxymethyl)DWV[Bip]Y[Orn][dL][Dab][Cha]V[Ala(CN)]C[Dab][Aun]-OH; thioether N-14),54.8 nM
6,CC[C@H](C)[C@@H]1NC(=O)[C@H](Cc2ccc(-c3ccccc3)cc2)NC(=O)[C@H](C(C)C)NC(=O)[C@H](Cc2c[nH]c3ccccc23)NC(=O)[C@H](CC(=O)O)NC(=O)[C@H](Cc2ccc(OCC(=O)O)cc2)NC(=O)[C@H](Cc2ccncc2)NC(=O)CSC[C@@H](C(=O)N[C@@H](CCCN)C(=O)NCCOCCOCC(=O)NCCCCCCCCCCC(=O)O)NC(=O)[C@H]([C@@H](C)O)NC(=O)[C@H](C(C)C)NC(=O)[C@H](CC(C)C)NC(=O)[C@H](CCN)NC(=O)[C@@H](CC(C)C)NC(=O)[C@H](CCCN)NC1=O [Compound 1159] ({CH2CO}-[4Pal]Y(Carboxymethyl)DWV[Bip]I[Orn][dL][Dab]LVTC[Orn][AEEA][Aun]-OH; thioether N-14),33.4 nM

# Now those with a lower IC50, led by results:
row,IC50,SMILES
1,25.7 nM,CC(C)C[C@H]1NC(=O)[C@H](CCCN)NC(=O)[C@H](Cc2ccc(C(=O)O)cc2)NC(=O)[C@H](Cc2ccc(-c3ccccc3)cc2)NC(=O)[C@H](Cc2ccc(C(=O)O)cc2)NC(=O)[C@H](Cc2cccc(C(F)(F)F)c2)NC(=O)[C@H](CC(=O)O)NC(=O)[C@H](Cc2ccc(OCC(=O)O)cc2)NC(=O)[C@H](CN2CCOCC2)NC(=O)CSC[C@@H](C(=O)N[C@@H](CCN)C(=O)NCCOCCOCC(=O)NCCOCCOCC(=O)NCCCCCCCCCCCCC(=O)O)NC(=O)[C@H](CC(=O)O)NC(=O)[C@H](C(C)(C)O)NC(=O)[C@H](CC2CCCCC2)NC(=O)[C@H](CCN)NC1=O [Compound 2920] ({CH2CO}-[Ala(morpholin-4-yl)]Y(Carboxymethyl)D[Phe(3-CF3)][Phe(4-COOH)][Bip][Phe(4-COOH)][Orn][dL][Dab][Cha][Val(3-OH)]DC[Dab][AEEA][AEEA]-{NH(CH2)12COOH}; thioether N-14)
2,10 nM,CC(=O)COc1ccc(C[C@@H]2NC(=O)[C@H](Cc3cccc(C)c3)NC(=O)[C@H](CC(=O)O)NC(=O)[C@H](Cc3ccc(OCC(=O)O)cc3)NC(=O)[C@H](CCCNC(=N)N)NC(=O)CSC[C@@H](C(=O)N[C@@H](CCN)C(=O)NCCCCCCCCCCC(=O)O)NC(=O)[C@H]([C@@H](C)O)NC(=O)[C@H](C(C)C)NC(=O)[C@H](CC3CCCCC3)NC(=O)[C@H](CCN)NC(=O)[C@@H](CC(C)C)NC(=O)[C@H](CCCN)NC(=O)[C@H](Cc3ccncc3)NC(=O)[C@H](Cc3ccc(-c4ccccc4)cc3)NC2=O)cc1 [Compound 2114] ({CH2CO}-RY(Carboxymethyl)D[Phe(3-Me)]Y(CH2COCH2)[Bip][4Pal][Orn][dL][Dab][Cha]VTC[Dab][Aun]-OH; thioether N-14)
3,1.9 nM,CCCC[C@@H]1NC(=O)CSC[C@@H](C(=O)N[C@@H](CCN)C(=O)NCCCCCCCCCCC(=O)O)NC(=O)[C@H](CCC(=O)O)NC(=O)[C@H](C(C)(C)O)NC(=O)[C@H](CC2CCCCC2)NC(=O)[C@H](CCN)NC(=O)[C@@H](CC(C)C)NC(=O)[C@H](CCCN)NC(=O)[C@H](Cc2ccc(OCC(=O)O)cc2)NC(=O)[C@H](Cc2ccc(-c3ccccc3)cc2)NC(=O)[C@H](Cc2ccc(OCC(=O)O)cc2)NC(=O)[C@H](Cc2cccc(C)c2)NC(=O)[C@H](CC(=O)O)NC(=O)[C@H](Cc2ccc(OCC(=O)O)cc2)NC1=O [Compound 3796] ({CH2CO}-[Nle]Y(Carboxymethyl)D[Phe(3-Me)]Y(Carboxymethyl)[Bip]Y(Carboxymethyl)[Orn][dL][Dab][Cha][Val(3-OH)]EC[Dab][Aun]-OH; thioether N-14)
